Reference: patent US20220119354A1, “DIAMINO-SUBSTITUTED PYRIDINES AND PYRIMIDINES AS HERBICIDES” (FMC Corporation, priority 2019, published 2022)

How the values were obtained:
Type in all cases: in vivo
[1] = test system: barnyardgrass (Echinochloa crus-galli); assay: Test A preemergence, barnyardgrass; details: 0 to 100 scale
How it was run: (§1)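 Using a solvent/surfactant formulation, test chemicals were sprayed onto freshly seeded soil or onto 2–10 cm seedlings at the one- to two-leaf stage. Visual injury ratings on a 0–100 scale were made about 10 d later in the greenhouse.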

kochia (Kochia scoparia) [2] = assay: Test A preemergence, kochia; details: 0 to 100 scale
How it was run: as §1

[3] = test system: ragweed (common ragweed, Ambrosia elatior); assay: Test A preemergence, ragweed; details: 0 to 100 scale
How it was run: as §1

[4] = test system: ryegrass, Italian (Lolium multiflorum); assay: Test A preemergence, Italian ryegrass; details: 0 to 100 scale
How it was run: as §1

[5] = test system: foxtail, giant (Setaria faberii); assay: Test A preemergence, giant foxtail; details: 0 to 100 scale
How it was run: as §1

[6] = test system: pigweed (Amaranthus retroflexus); assay: Test A preemergence, pigweed; details: 0 to 100 scale
How it was run: as §1

[7] = test system: barnyardgrass (Echinochloa crus-galli); assay: Test A postemergence, barnyardgrass; details: 0 to 100 scale
How it was run: as §1

kochia (Kochia scoparia) [8] = assay: Test A postemergence, kochia; details: 0 to 100 scale
How it was run: as §1

[9] = test system: ragweed (common ragweed, Ambrosia elatior); assay: Test A postemergence, ragweed; details: 0 to 100 scale
How it was run: as §1

[10] = test system: ryegrass, Italian (Lolium multiflorum); assay: Test A postemergence, Italian ryegrass; details: 0 to 100 scale
How it was run: as §1

[11] = test system: foxtail, giant (Setaria faberii); assay: Test A postemergence, giant foxtail; details: 0 to 100 scale
How it was run: as §1

[12] = test system: pigweed (Amaranthus retroflexus); assay: Test A postemergence, pigweed; details: 0 to 100 scale
How it was run: as §1

[13] = test system: wheat (Triticum aestivum); assay: Test A postemergence, wheat; details: 0 to 100 scale
How it was run: as §1

corn (Zea mays) = assay: Test A postemergence, corn; details: 0 to 100 scale
How it was run: as §1

[14] = test system: blackgrass (Alopecurus myosuroides); assay: Test A postemergence, blackgrass; details: 0 to 100 scale
How it was run: as §1

[15] = test system: galium (catchweed bedstraw, Galium aparine); assay: Test A postemergence, galium; details: 0 to 100 scale
How it was run: as §1

rice (Oryza sativa) = assay: Test B flooded paddy test, rice; details: Flood, 250 g ai/ha, applied to paddy water, 2-leaf stage, visual evaluation after 13 to 15 d
How it was run: (§2)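 Rating: 0 = no effect, 100 = complete control, visual, relative to untreated plants. Conditions: 2-leaf stage, 3 cm flood kept constant, compound put directly into water, 13–15 d greenhouse.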

[16] = test system: sedge, umbrella (small-flower umbrella sedge, Cyperus difformis); assay: Test B flooded paddy test, umbrella sedge; details: Flood, 250 g ai/ha, applied to paddy water, 2-leaf stage, visual evaluation after 13 to 15 d
How it was run: as §2

[17] = test system: ducksalad (Heteranthera limosa); assay: Test B flooded paddy test, ducksalad; details: Flood, 250 g ai/ha, applied to paddy water, 2-leaf stage, visual evaluation after 13 to 15 d
How it was run: as §2

[18] = test system: barnyardgrass (Echinochloa crus-galli); assay: Test B flooded paddy test, barnyardgrass; details: Flood, 250 g ai/ha, applied to paddy water, 2-leaf stage, visual evaluation after 13 to 15 d
How it was run: as §2

C[C@H](Nc1ncc(C(F)(F)F)c(N)n1)c1cc2ccccc2s1 [Compound 5]
40: Plant response rating, Galium ([15]; 500 g ai/ha)
50: Plant response rating, Pigweed ([6]; 500 g ai/ha)
90: Plant response rating, Pigweed ([12]; 500 g ai/ha)
0: Plant response rating, Barnyardgrass ([1]; 125 g ai/ha) | Plant response rating, Barnyardgrass ([1]; 500 g ai/ha) | Plant response rating, Kochia (kochia (Kochia scoparia) [2]; 125 g ai/ha) | Plant response rating, Kochia (kochia (Kochia scoparia) [2]; 500 g ai/ha) | Plant response rating, Ragweed ([3]; 125 g ai/ha) | Plant response rating, Ragweed ([3]; 500 g ai/ha) | Plant response rating, Foxtail, Giant ([5]; 125 g ai/ha) | Plant response rating, Pigweed ([6]; 125 g ai/ha) | Plant response rating, Barnyardgrass ([7]; 125 g ai/ha) | Plant response rating, Barnyardgrass ([7]; 500 g ai/ha) | Plant response rating, Kochia (kochia (Kochia scoparia) [8]; 125 g ai/ha) | Plant response rating, Ragweed ([9]; 125 g ai/ha) | Plant response rating, Ryegrass, Italian ([10]; 125 g ai/ha) | Plant response rating, Ryegrass, Italian ([10]; 500 g ai/ha) | Plant response rating, Foxtail, Giant ([11]; 125 g ai/ha) | Plant response rating, Foxtail, Giant ([11]; 500 g ai/ha) | Plant response rating, Wheat ([13]; 125 g ai/ha) | Plant response rating, Wheat ([13]; 500 g ai/ha) | Plant response rating, Corn (corn (Zea mays); 500 g ai/ha) | Plant response rating, Blackgrass ([14]; 125 g ai/ha) | Plant response rating, Blackgrass ([14]; 500 g ai/ha) | Plant response rating, Galium ([15]; 125 g ai/ha) | Plant response rating, Rice (0 to 100 scale, 0 is no effect, 100 is complete control) (rice (Oryza sativa)) | Plant response rating, Sedge, Umbrella (0 to 100 scale, 0 is no effect, 100 is complete control) [16] | Plant response rating, Ducksalad (0 to 100 scale, 0 is no effect, 100 is complete control) [17] | Plant response rating, Barnyardgrass (0 to 100 scale, 0 is no effect, 100 is complete control) [18]
10: Plant response rating, Foxtail, Giant ([5]; 500 g ai/ha) | Plant response rating, Ragweed ([9]; 500 g ai/ha) | Plant response rating, Corn (corn (Zea mays); 125 g ai/ha)
20: Plant response rating, Ryegrass, Italian ([4]; 125 g ai/ha) | Plant response rating, Ryegrass, Italian ([4]; 500 g ai/ha) | Plant response rating, Kochia (kochia (Kochia scoparia) [8]; 500 g ai/ha) | Plant response rating, Pigweed ([12]; 125 g ai/ha)

C[C@@H](Nc1ncc(C(F)(F)F)c(N)n1)c1cc2cc(C(F)(F)F)ccc2o1 [Compound 7]
20: Plant response rating, Galium ([15]; 500 g ai/ha)
90: Plant response rating, Pigweed ([12]; 500 g ai/ha)
30: Plant response rating, Pigweed ([6]; 500 g ai/ha) | Plant response rating, Pigweed ([12]; 125 g ai/ha)
0: Plant response rating, Barnyardgrass ([1]; 125 g ai/ha) | Plant response rating, Barnyardgrass ([1]; 500 g ai/ha) | Plant response rating, Kochia (kochia (Kochia scoparia) [2]; 125 g ai/ha) | Plant response rating, Kochia (kochia (Kochia scoparia) [2]; 500 g ai/ha) | Plant response rating, Ragweed ([3]; 125 g ai/ha) | Plant response rating, Ragweed ([3]; 500 g ai/ha) | Plant response rating, Ryegrass, Italian ([4]; 125 g ai/ha) | Plant response rating, Ryegrass, Italian ([4]; 500 g ai/ha) | Plant response rating, Foxtail, Giant ([5]; 125 g ai/ha) | Plant response rating, Foxtail, Giant ([5]; 500 g ai/ha) | Plant response rating, Pigweed ([6]; 125 g ai/ha) | Plant response rating, Barnyardgrass ([7]; 125 g ai/ha) | Plant response rating, Barnyardgrass ([7]; 500 g ai/ha) | Plant response rating, Kochia (kochia (Kochia scoparia) [8]; 125 g ai/ha) | Plant response rating, Kochia (kochia (Kochia scoparia) [8]; 500 g ai/ha) | Plant response rating, Ragweed ([9]; 125 g ai/ha) | Plant response rating, Ragweed ([9]; 500 g ai/ha) | Plant response rating, Ryegrass, Italian ([10]; 125 g ai/ha) | Plant response rating, Ryegrass, Italian ([10]; 500 g ai/ha) | Plant response rating, Foxtail, Giant ([11]; 125 g ai/ha) | Plant response rating, Foxtail, Giant ([11]; 500 g ai/ha) | Plant response rating, Wheat ([13]; 125 g ai/ha) | Plant response rating, Wheat ([13]; 500 g ai/ha) | Plant response rating, Corn (corn (Zea mays); 125 g ai/ha) | Plant response rating, Corn (corn (Zea mays); 500 g ai/ha) | Plant response rating, Blackgrass ([14]; 125 g ai/ha) | Plant response rating, Blackgrass ([14]; 500 g ai/ha) | Plant response rating, Galium ([15]; 125 g ai/ha) | Plant response rating, Rice (0 to 100 scale, 0 is no effect, 100 is complete control) (rice (Oryza sativa)) | Plant response rating, Sedge, Umbrella (0 to 100 scale, 0 is no effect, 100 is complete control) [16] | Plant response rating, Ducksalad (0 to 100 scale, 0 is no effect, 100 is complete control) [17] | Plant response rating, Barnyardgrass (0 to 100 scale, 0 is no effect, 100 is complete control) [18]

C[C@@H](Nc1ncc(C(F)(F)F)c(N)n1)c1cc2ccc(F)cc2o1 [Compound 8, N2-[(1R)-1-(6-fluoro-2-benzofuranyl)ethyl]-5-(trifluoromethyl)-2,4-pyrimidinediamine]
80%: pest or weed control at 125 g/ha (kochia (Kochia scoparia) [8]; Bassia scoparia, post-emergence, 240 h, 125 g ai/ha, read-out: Plant response rating, Kochia)
70%: pest or weed control at 125 g/ha ([15]; Galium, post-emergence, 240 h, 125 g ai/ha, read-out: Plant response rating, Galium)
60: Plant response rating, Kochia (kochia (Kochia scoparia) [2]; 125 g ai/ha)
98%: pest or weed control at 250 g/ha ([17]; Heteranthera limosa, 360 h, read-out: Plant response rating, Ducksalad (0 to 100 scale, 0 is no effect, 100 is complete control))
60%: pest or weed control at 500 g/ha ([14]; Alopecurus myosuroides, post-emergence, 240 h, 500 g ai/ha, read-out: Plant response rating, Blackgrass)
20%: Corn plant response rating (crop injury, 0 = no effect, 100 = complete kill) at 500 g/ha (corn (Zea mays); Zea mays, post-emergence, 240 h, 500 g ai/ha) | pest or weed control at 125 g/ha ([14]; Alopecurus myosuroides, post-emergence, 240 h, 125 g ai/ha, read-out: Plant response rating, Blackgrass)
40%: pest or weed control at 125 g/ha ([11]; Setaria faberi, post-emergence, 240 h, 125 g ai/ha, read-out: Plant response rating, Foxtail, Giant) | plant injury at 250 g/ha (rice (Oryza sativa); Oryza sativa, 360 h, read-out: Plant response rating, Rice (0 to 100 scale, 0 is no effect, 100 is complete control))
80: Plant response rating, Pigweed ([6]; 125 g ai/ha)
50%: pest or weed control at 125 g/ha ([7]; Echinochloa crus-galli, post-emergence, 240 h, 125 g ai/ha, read-out: Plant response rating, Barnyardgrass)
0: Plant response rating, Barnyardgrass ([1]; 125 g ai/ha) | Plant response rating, Ryegrass, Italian ([4]; 125 g ai/ha) | Plant response rating, Ryegrass, Italian ([4]; 500 g ai/ha)
100: Plant response rating, Ragweed ([3]; 500 g ai/ha) | Plant response rating, Foxtail, Giant ([5]; 500 g ai/ha) | Plant response rating, Pigweed ([6]; 500 g ai/ha)
90: Plant response rating, Barnyardgrass ([1]; 500 g ai/ha) | Plant response rating, Kochia (kochia (Kochia scoparia) [2]; 500 g ai/ha) | Plant response rating, Ragweed ([3]; 125 g ai/ha)
100%: pest or weed control at 125 g/ha ([12]; Amaranthus retroflexus, post-emergence, 240 h, 125 g ai/ha, read-out: Plant response rating, Pigweed) | pest or weed control at 500 g/ha ([12]; Amaranthus retroflexus, post-emergence, 240 h, 500 g ai/ha, read-out: Plant response rating, Pigweed) | pest or weed control at 250 g/ha ([16]; Cyperus difformis, 360 h, read-out: Plant response rating, Sedge, Umbrella (0 to 100 scale, 0 is no effect, 100 is complete control))
90%: pest or weed control at 500 g/ha ([7]; Echinochloa crus-galli, post-emergence, 240 h, 500 g ai/ha, read-out: Plant response rating, Barnyardgrass) | pest or weed control at 500 g/ha (kochia (Kochia scoparia) [8]; Bassia scoparia, post-emergence, 240 h, 500 g ai/ha, read-out: Plant response rating, Kochia) | pest or weed control at 125 g/ha ([9]; Ambrosia artemisiifolia, post-emergence, 240 h, 125 g ai/ha, read-out: Plant response rating, Ragweed) | pest or weed control at 500 g/ha ([9]; Ambrosia artemisiifolia, post-emergence, 240 h, 500 g ai/ha, read-out: Plant response rating, Ragweed) | pest or weed control at 500 g/ha ([11]; Setaria faberi, post-emergence, 240 h, 500 g ai/ha, read-out: Plant response rating, Foxtail, Giant) | pest or weed control at 500 g/ha ([15]; Galium, post-emergence, 240 h, 500 g ai/ha, read-out: Plant response rating, Galium)
50: Plant response rating, Foxtail, Giant ([5]; 125 g ai/ha)
0%: pest or weed control at 125 g/ha ([10]; Lolium multiflorum, post-emergence, 240 h, 125 g ai/ha, read-out: Plant response rating, Ryegrass, Italian) | pest or weed control at 500 g/ha ([10]; Lolium multiflorum, post-emergence, 240 h, 500 g ai/ha, read-out: Plant response rating, Ryegrass, Italian) | plant injury at 125 g/ha ([13]; Triticum aestivum, post-emergence, 240 h, 125 g ai/ha, read-out: Plant response rating, Wheat) | plant injury at 500 g/ha ([13]; Triticum aestivum, post-emergence, 240 h, 500 g ai/ha, read-out: Plant response rating, Wheat) | Corn plant response rating (crop injury, 0 = no effect, 100 = complete kill) at 125 g/ha (corn (Zea mays); Zea mays, post-emergence, 240 h, 125 g ai/ha) | pest or weed control at 250 g/ha ([18]; Echinochloa crus-galli, 360 h, read-out: Plant response rating, Barnyardgrass (0 to 100 scale, 0 is no effect, 100 is complete control))
